Measured values reported in patent US11510859B2, “Method for improving aqueous solubility of water-insoluble or slightly water-soluble drugs” (MARINOMED BIOTECH AG, priority 2015, dated 2022).

What was measured:
porcine nasal mucosa = test: Ex vivo penetration of fluticasone propionate into porcine nasal mucosa; type: in vitro ADME; settings: 5 μg/ml; 0.03% escin, 3% propylene glycol, 5% dexpanthenol vs suspension without saponin; 15-60 min
Experimental: In order to test for the bioavailability of compositions prepared in accordance with the present invention, experiments were conducted ex vivo wherein an experimental composition comprising fluticasone propionate as a compound of interest was compared to a composition comprising the same compound at the same concentration but without a saponin as a solubilization enhancer.
FIG. 14 represents the concentrations of fluticasone propionate penetrated ex-vivo into porcine nasal mucosa at different time points. The experimental composition comprised 5 μg/ml fluticasone propionate dissolved in aqueous buffer comprising 0.03% escin, 3% propylene glycol and 5% dexpanthenol. The comparative specimen was a suspension comprising the same aqueous buffer and no saponin nor dexpanthenol. Both formulations were added ex-vivo onto surgically extracted porcine nasal mucosa. After 15, 30, 45 and 60 minutes of incubation the mucosa was washed and the amount of permeated fluticasone propionate was determined by HPLC-MS/MS. • A—experimental composition; • B—comparative fluticasone propionate suspension; • x-axis=incubation time in minutes; • y-axis=ng fluticasone propionate/g tissue.

[1] = Solubility of fluticasone propionate in 0.25x McIlvaine buffer (Examples 10, 11); type: physicochemical
Experimental: 0% Propylene glycol • B . . . 5% Propylene glycol • C . . . 10% Propylene glycol • * . . . w/v % Escin • # . . . v/v % Dexpanthenol • y-axis . . . concentration of dissolved fluticasone propionate
FIG. 7 represents the impact of dexpanthenol and saponin concentration on the dissolution of fluticasone propionate in 0.25× McIlvaine buffer containing 5% propylene glycol (maximum concentration achieved=5 μg/ml). […] The presence of 5% dexpanthenol seems to deliver solubility boosting effects. • A . . . 0% Dexpanthenol • B . . . 5% Dexpanthenol • y-axis . . . concentration of dissolved fluticasone propionate • x-axis . . . % Glycyrrhizin

[2] = Fluticasone propionate solubility in the presence of hyaluronic acid (Examples 3, 14); type: physicochemical; settings: 5% propylene glycol, 7.5 g/l hyaluronic acid; one month storage at ambient temperature
Experimental: Samples of series A (0% dexpanthenol): 2.5 ml solution containing the respective escin concentration (McIlvaine 0.01%, 0.02%, 0.03% or McIlvaine buffer) were mixed with 3.6 ml hyaluronic acid stock solution and 0.5 ml Fluticasone propionate pre-solution and filled up to 10 ml with distilled water. Samples of series B (2% dexpanthenol): 2.5 ml solution containing the respective escin concentration (McIlvaine 0.01%, 0.02%, 0.03% or McIlvaine buffer) were mixed with 0.2 ml dexpanthenol, 3.6 ml Hyaluronic acid stock solution and 0.5 ml fluticasone propionate pre-solution and filled up to 10 ml with distilled water. […]
After 1 month storage at room temperature, samples were taken and centrifuged for 11 min at 15700 rcf. The clear supernatant was filled into glass vials and the concentration of dissolved FP (maximal 5 μg/ml) was measured in duplicates by HPLC.
Fluticasone propionate in the presence of hyaluronic acid was analyzed by RP-HPLC (UV absorbance detection at 235 nm) using a gradient from 5% acetonitrile to 90% acetonitrile in water containing 0.01% TFA (see detailed gradient description below).
Solvent A: water HPLC gradient grade 0.01% trifluoroacetic acid. […] From the fluticasone propionate containing samples 40 μl each were injected and analyzed. […]

[3] = Saturation concentrations of drugs in buffered solvent, HPLC of supernatant (Example 4); type: physicochemical; settings: McIlvaine buffer pH 6.0; compound pre-dissolved in propylene glycol
Experimental: 250 μl “McIlvaine 0.1%” were mixed with 50 μl dexpanthenol stock solution, brought to 900 μl with distilled water, and combined and vigorously mixed with 100 μl experimental compound pre-dissolved resp. pre-suspended in propylene glycol. Alternative solutions with compound pre-dilutions/pre-suspensions in DMSO were prepared. Samples were centrifuged for 10 min at 15800 rcf. Aliquots of the clear supernatants were transferred into autosampler glass vials and the content of the dissolved experimental compounds was analyzed by HPLC using isocratic elution with 70% or 80% acetonitrile 0.01% TFA/[…] or 30% water 0.01% TFA at 1 ml/min and 50° C. for 10 min on an Agilent Zorbax Eclipse Plus C18 column (3.5 μm, 4.6×150 mm) and UV absorbance detection at the wavelengths appropriate for the respective experimental compound.

[4] = U.S. Pat. No. 4,868,170; cited from earlier work

SMILES	concentration of drug permeated into mucosal tissue, experimental composition versus comparative suspension (porcine nasal mucosa)	best achieved concentration without saponin relative to maximum concentration with at least 0.03% escin ([1]; 0.25x McIlvaine buffer pH 6, propylene glycol 0-10%, dexpanthenol 0-5%)	maximum concentration achieved ([1]; 0.25x McIlvaine buffer, 5% propylene glycol, glycyrrhizin, dexpanthenol 0% or 5%) [µg/mL]	effect of dexpanthenol on fluticasone propionate solubility in the presence of escin [2]	Saturation concentration in 10% propylene glycol or DMSO without escin or dexpanthenol [3] [µg/mL]	Saturation concentration in 10% propylene glycol or DMSO, 0.1% escin and 5% dexpanthenol [3] [µg/mL]	aqueous solubility [4]
CCC(=O)O[C@]1(C(=O)SCF)[C@H](C)C[C@H]2[C@@H]3C[C@H](F)C4=CC(=O)C=C[C@]4(C)[C@@]3(F)[C@@H](O)C[C@@]21C [Fluticasone propionate]	around five times higher	about 50%	5	synergistically boost the solubility enhancing activity of escin	0.68	5	
CCS[C@]1(SC)CC[C@H]2[C@@H]3CCC4=CC(=O)C=C[C@]4(C)[C@@]3(F)[C@@H](O)C[C@@]21C [tipredane]							less than 0.2 mg/l
